The results in this text go back to publication PMC3504484 (Journal of Medicinal Chemistry, 2012).

One assay deals with T1, 5-HT3A receptor (Homo sapiens, UniProt P46098).
T1 sequence (P46098 24-478): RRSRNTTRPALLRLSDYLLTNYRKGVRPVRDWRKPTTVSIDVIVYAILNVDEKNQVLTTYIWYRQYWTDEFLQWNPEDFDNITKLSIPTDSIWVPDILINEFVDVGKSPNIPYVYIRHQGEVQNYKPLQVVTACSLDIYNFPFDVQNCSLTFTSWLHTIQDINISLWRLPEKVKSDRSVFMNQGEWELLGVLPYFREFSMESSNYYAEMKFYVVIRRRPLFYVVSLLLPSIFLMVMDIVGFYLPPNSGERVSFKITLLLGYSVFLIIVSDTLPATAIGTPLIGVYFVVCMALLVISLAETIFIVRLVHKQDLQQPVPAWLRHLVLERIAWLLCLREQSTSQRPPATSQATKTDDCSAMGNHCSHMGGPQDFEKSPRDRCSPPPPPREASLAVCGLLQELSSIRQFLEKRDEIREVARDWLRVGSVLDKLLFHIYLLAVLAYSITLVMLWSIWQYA
Format: binding.

The subject of a further assay is Glycine. The assay can be described thus: single point radioligand competition binding. The arrangement: species or system rat. Conditions: 0.1 µM. (In a radioligand displacement assay an active substance lowers the binding of a labelled ligand.)
[1] abbreviates: compared to quinoline compound 51.
Setting [2] is: compared to parent isoquinoline compound 52.

SMILES strings stand for the structures. Read-outs that look alike come from different tables or passages of the source. Some results are limits rather than exact numbers.

For the compound `CNc1nc(N2CCN(C)CC2)nc2ccc(Cl)cc12` [Compound 6], the “fold increase in affinity” value on 5-HT3A receptor (compared to compound 1) amounted to 16 fold.
For the compound `CN1CCN(c2ncc3cc(Cl)ccc3n2)CC1` [Compound 11, 6-Chloro-2-(4-methylpiperazin-1-yl)quinazoline], the “fold reduction in affinity” value at 5-HT3A receptor (compared to compound 6) is given as ~10 fold.
Take `CN1CCN(c2nc(N)c3cc(Cl)ccc3n2)CC1` [Compound 12]: at 5-HT3A receptor, the “fold reduction in affinity” value is ~10 fold.
For the compound `CN1CCN(c2nc(N(C)C)c3cc(Cl)ccc3n2)CC1` [Compound 13], on 5-HT3A receptor (compared to compound 6), the “fold reduction in affinity” value is ~10 fold.
On the same count and under the same terms, as for `CNc1nc(N2CCN(C)CC2)nc2ccccc12` [Compound 21, N-Methyl-2-(4-methylpiperazin-1-yl)quinazolin-4-amine], the figure is ~5 fold.
On to `CN1CCN(c2nc(N)c3ccccc3n2)CC1` [Compound 22], for which, in the assay with Glycine, the “% inhibition of control specific binding ± s.e.m.” value is on record as <15%. Also, at 5-HT3A receptor (H4R affinity from ref 35), the “selectivity for the 5-HT3A receptor over the H4R” value is ~40 000 fold.
For `CNc1cc(N2CCN(C)CC2)nc2ccccc12` [Compound 31, N-Methyl-2-(4-methylpiperazin-1-yl)quinolin-4-amine], the “fold drop in affinity” value on 5-HT3A receptor (setting [1]) is reported as ~30 fold.
Consider `CN1CCN(c2cnc3ccccc3c2)CC1` [Compound 35, 3-(4-Methylpiperazin-1-yl)quinoline], for which, on 5-HT3A receptor (compared to (iso)quinolines 51 and 52), the “fold drop in affinity” value is listed as > 250 fold.
Turning to `CN1CCN(c2cc3ccccc3c(N)n2)CC1` [Compound 39, 3-(4-Methylpiperazin-1-yl)isoquinolin-1-amine], the fold lower affinity on 5-HT3A receptor (setting [2]) is given as 140 fold.
On to `CNc1nc(N2CCN(C)CC2)cc2ccccc12` [Compound 40, N-Methyl-3-(4-methylpiperazin-1-yl)isoquinolin-1-amine], for which, at 5-HT3A receptor (setting [2]), the fold lower affinity is ~5 fold.
With `CN1CCN(c2ccc3c(N)cccc3n2)CC1` [Compound 46, 2-(4-Methylpiperazin-1-yl)quinolin-5-amine], the “fold drop in affinity” value is given as ~100 fold on 5-HT3A receptor (compared to compound 30) and ~1000 fold on 5-HT3A receptor (setting [1]).
Consider `CN1CCN(c2nc(O)c3cc(Cl)ccc3n2)CC1` [Compound 48], for which the “fold reduction in affinity” value at 5-HT3A receptor is ~500 fold.
Take `CN1CCN(c2cnc3ccccc3n2)CC1` [Compound 50]: the fold lower affinity on 5-HT3A receptor (compared to compounds 49, 51 and 52) is 3–10 fold.
